Measured values: US9073963B2 (Universite De Montreal, priority 2003, dated 2015)
Structures can show the parent of a compound that is named as a salt. Where two headings read alike, the source gives them in different places. Each block holds one molecule with its values, some of them ahead of it. Where a SMILES comes first, the peptide text is derived from it. [ ]: non-standard residue; d: D form. dCit = NC(=O)NCCC[C@@H](N)C(=O)O

Tests used:
FP receptor [1] = settings: cited from earlier work
C-PAF = settings: 0.1 mM THG113
Protocol: To prepare eyecups, a circular incision was made 3-4 mm posterior to ora serrata to remove the […] and vitreous body with minimal handling of the retina. The remaining eyecup was fixed with pins to a wax base in a 20 ml tissue bath containing 20 ml of Kreb's buffer (pH 7.35-7.45) and equilibrated with 21% oxygen and 5% carbon dioxide at 37° C. The preparations were allowed to stabilize for 30 min.
The outer vessel diameter was recorded with a video camera mounted on a dissecting microscope (Zeiss M 400) and the responses were quantified by a digital image analyzer (Sigma Scan Software, Jandel Scientific, Corte Madera, Calif.). Vascular diameter was recorded before and 5 min following the topical application of the agonist.

[2] = tested on: acetylcholine (uncharacterized subtypes); test: Porcine microvascular contraction to acetylcholine (selectivity); settings: agonist Acetylcholine 10^−6M; 0.1 mM THG113
Protocol: (§1) The preparations were allowed to stabilize for 30 min.

human FP receptor [3] = target: T1, human FP receptor (Homo sapiens, UniProt P43088); test: Specific binding of [125I]-THG113 to FP/293 cells versus parent HEK293 cells; settings: 10^5 cells, 10^6 cpm, 1 h
T1 construct: expressed in transfected cells; host or cells: HEK293 (FP/293)
T1 sequence (P43088 whole entry): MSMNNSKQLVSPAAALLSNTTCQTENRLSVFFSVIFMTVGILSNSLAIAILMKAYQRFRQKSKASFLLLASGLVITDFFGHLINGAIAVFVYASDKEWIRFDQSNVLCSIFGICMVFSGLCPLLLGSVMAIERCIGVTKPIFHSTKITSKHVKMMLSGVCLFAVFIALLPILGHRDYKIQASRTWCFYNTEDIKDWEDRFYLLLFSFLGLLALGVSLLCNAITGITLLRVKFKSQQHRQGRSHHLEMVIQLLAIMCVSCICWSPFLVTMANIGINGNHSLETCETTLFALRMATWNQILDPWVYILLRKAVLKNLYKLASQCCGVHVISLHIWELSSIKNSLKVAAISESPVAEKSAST
Protocol: [^125I]-THG113 was produced by labeling tyrosine residue with [^125I] using the lactoperoxidase method (Thorell et al. 1971 Biochim. Biophys. Acta 28, 251(3):363-369). HEK293 cells ectopically expressing cloned human FP receptor, FP/293, (10^5) were incubated with [^125I]-THG113 (10^6 cpm) for 1 h; bound and unbound ligands were separated by filtration on glass fibre filters. The radioactivity on the filters was counted by scintillation spectrophotometry. For a detailed method of ligand binding and displacement, see Li at al. (1996). […] Using cloned FP/293 cells in binding assays (see Li et al. for a method of ligand displacement assay), the specific binding of THG113 to FP protein was investigated.

SR Ca^2+ ATPase = test: Porcine microvascular contraction to BHQ (intracellular Ca2+ dynamics control); settings: BHQ 10^−6M; 0.1 mM THG113
Protocol: as §1

[4] = tested on: uterine strips obtained from recently-delivered mice; test: Contractility of mouse uterine (myometrial) strips after delivery, organ bath
Protocol: Myometrial strips (1 cm) were dissected from pregnant mice immediately after delivery (when the uterus is still non-quiescent) and suspended in organ baths containing 10 ml of KREB's buffer bubbled with 90% oxygen. Contractile responses were recorded using pressure transducers connected to a Gould polygraph.

human FP receptor [5] = target: T1, human FP receptor; test: Phosphoinositide hydrolysis in FP/293 cells; format: cell-based; settings: in the presence of 100 nM PGF2α, 30 min
Description: The phosphoinositides were collected by anion exchange chromatography with 1 M ammonium formate/0.1 N formic acid.

CD-1 mice = test: Endotoxin (E. coli LPS) model of mouse preterm labor
Protocol: Timed-pregnant CD-1 mice (mean gestation was 19.2 days) were purchased and at day 17, alzet pumps containing THG113 in saline were surgically implanted on the back of the animals. These pumps continuously deliver the inhibitor at 1 mg/day. E. coli lipopolysaccharide (LPS) (50 μg i. p. twice at 3 h interval) was injected on day 15.
E. coli LPS (50 μg twice three hours apart, i.p) was administered to CD-1 mice (average weight: 50 g) at gestation day 15. Four hours after LPS was administered, alzet osmotic pumps that delivered 0.1, 0.4 or 0.8 mg/Kg/day of the drug were surgically implanted on the backs of the animals. Normal gestation in this strain is 19.2 days.
E. coli LPS (50 μg twice three hours apart, i.p) was administered to CD-1 mice at gestation day 15. Alzet osmotic pumps that delivered 0.1 mg/Kg/day of the drug were surgically implanted on the backs of the animals. Normal gestation in this strain is 19.2 days.

FP receptor [6] = target: T2, FP receptor (Sus scrofa, UniProt C6GAG8); test: Porcine retinal (ocular) microvascular contraction to PGF2α, eyecup assay; settings: for % Inhibition: 100 nM PGF2α, compound at 100 μM
T2 construct: the porcine eyecup model, an ex vivo assay of vascular constriction in porcine retinas; from tissue; host or cells: retinal microvessels in eyecups of newborn pigs pre-treated with ibuprofen
T2 sequence (C6GAG8 1-362): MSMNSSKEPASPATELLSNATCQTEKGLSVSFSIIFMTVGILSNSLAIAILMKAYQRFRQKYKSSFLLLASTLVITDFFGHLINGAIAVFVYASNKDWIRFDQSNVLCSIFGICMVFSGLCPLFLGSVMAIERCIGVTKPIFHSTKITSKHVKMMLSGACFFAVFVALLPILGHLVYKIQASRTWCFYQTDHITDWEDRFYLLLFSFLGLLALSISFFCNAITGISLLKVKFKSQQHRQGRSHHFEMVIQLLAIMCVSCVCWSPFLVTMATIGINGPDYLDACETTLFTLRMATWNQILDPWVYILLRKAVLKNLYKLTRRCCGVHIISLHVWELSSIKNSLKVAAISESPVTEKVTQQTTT
Protocol: as §1
Percent (%) inhibition denotes porcine ocular microvessel contraction in response to 100 nM PGF2α in the presence of 0.1 mM peptide relative to that in the absence of the peptide, expressed as percentage.

Urotensin = test: Porcine microvascular contraction to urotensin (selectivity); settings: agonist Urotensin 10^−6M; 0.1 mM THG113
Protocol: as §1

human FP receptor [7] = target: T1, human FP receptor; test: Displacement of bound [3H]PGF2α in FP/293 whole cell assay; format: binding; settings: FP/293 cells
Description: […] Biophys. Acta 28, 251(3):363-369). […] The radioactivity on the filters was counted by scintillation spectrophotometry. For a detailed method of ligand binding and displacement, see Li at al. (1996). […] Using cloned FP/293 cells in binding assays (see Li et al. for a method of ligand displacement assay), the specific binding of THG113 to FP protein was investigated.

myometrial strips [8] = test: Contractility of bovine myometrial strips
FP receptor [9] = target: T2, FP receptor; test: Porcine retinal (ocular) microvascular contraction to PGF2α, eyecup assay
myometrial strips [10] = test: Contractility of ovine myometrial strips
[11] = tested on: TP, EP1, angiotensin AT1, endothelin receptor, alpha adrenergic receptors; test: Specificity in porcine ocular microvessel contractility assays, agonists of other GPCRs; settings: 1 μM peptide

Compound: O=C(O)CCC/C=C\C[C@@H]1[C@@H](/C=C/[C@H](O)C2Cc3ccccc3C2)[C@@H](F)C[C@@H]1O [AL8810]
- activity at FP receptor (FP receptor [1]): weak partial agonist

Compound: CC[C@@H](C)[C@@H](N)C(=O)N[C@H](CC(C)C)C(=O)NCC(=O)N[C@H](Cc1c[nH]cn1)C(=O)N[C@H](CCCNC(=N)N)C(=O)N[C@H](CC(=O)O)C(=O)N[C@H](Cc1ccc(O)cc1)C(=O)N[C@H](CCCCN)C(=O)O [Compound 1] (H-[dI][dL]G[dH][dR][dD][dY][dK]-OH; N-terminus and C-terminus assumed)
- % Inhibition (C-PAF; agonist C-PAF 10^−6M): <1%
- % Inhibition (C-PAF; agonist C-PAF 10^−7M): <1%
- % Inhibition [2]: <1%
- specific binding of [125I]-THG113 to FP/293 cells relative to parent HEK293 cells (human FP receptor [3]): 27 fold
- % Inhibition (SR Ca^2+ ATPase): <1%
- time until spontaneous and PGF2α (1 μM)-induced contractile responses were diminished ([4]; after addition of 100 μM THG113): ≤ 20 min
- inhibition of PGF2α-stimulated phosphoinositide hydrolysis (human FP receptor [5]): dose-dependently inhibited
- animals with labor delayed past 15 h after LPS (CD-1 mice; alzet pump 1 mg/day): 60%
- mean time of delivery (CD-1 mice; alzet pump 1 mg/day, after LPS): 36 h
- contractile response to supra-physiological levels of PGF2α (FP receptor [6]; 100 μM THG113): failed to produce contractile response
- selectivity of inhibition among GPCR agonists (FP receptor [6]; 0.1 mM THG113, 0.1 μM concentration of the agonists): selective for FP receptor only
- % Inhibition (Urotensin): <1%
- displacement of [3H]PGF2α binding (human FP receptor [7]): little displacement

Compound: CC[C@@H](C)[C@@H](N)C(=O)N[C@H](CC(C)C)C(=O)NCC(=O)N[C@H](Cc1c[nH]cn1)C(=O)N[C@H](CCCNC(N)=O)C(=O)N[C@H](CC(=O)O)C(=O)N[C@H](Cc1ccc(O)cc1)C(=O)N[C@H](CCCCN)C(=O)O [Compound 32] (H-[dI][dL]G[dH][dCit][dD][dY][dK]-OH; N-terminus and C-terminus assumed)
- uterine contractile responses (contraction duration and mean force of contraction) ([4]; induced by 1 μM PGF2α): dose-dependent reduction
- reduction of uterine contractile responses (myometrial strips [8]): Reductions of similar magnitude
- animals delivered within 15 h after LPS administration (CD-1 mice; 0.1 mg (osmotic pump)): less than 30%
- animals delivered at 48 h after LPS administration (CD-1 mice; 0.4 mg dose): 50-60%
- animals delivered within 15 h after LPS administration (CD-1 mice; 0.8 mg (osmotic pump)): < 15%
- animals delivered at 48 h after LPS administration (CD-1 mice; 0.8 mg dose): 50-60%
- delay in delivery (CD-1 mice; 0.1, 0.4 or 0.8 mg/Kg/day): dose-dependent delay in delivery
- selectivity for FP receptor (FP receptor [9]; 1 μM peptide): selective inhibitor of FP receptor
- reduction of uterine contractile responses (myometrial strips [10]): Reductions of similar magnitude
- vasomotor responses produced by agonists of other GPCRs, including TP and EP1 [11]: did not affect the vasomotor responses

Compound: N=C(N)NCCC[C@H](NC(=O)[C@@H]1C[C@H](Cc2ccccc2)[C@@H]2CC[C@H](NC(=O)C3CCCCC3)C(=O)N12)C(=O)N[C@@H](CC(=O)O)C(=O)NCCC(c1ccccc1)c1ccccc1.O=C(O)C(F)(F)F [Compound 34, (3S,6S,7S,9S)-2-oxo-3-cyclohexanecarboxamido-7-benzyl-1-azabicyclo[4.3.0]nonane-9-carboxyl-L-argininyl-L-aspartyl-3′,3′-diphenylpropylamide trifluoroacetate]
- % Inhibition (FP receptor [9]; 100 nM PGF2α, compound at 50 μM): 63.2%

Compound: N=C(N)NCCC[C@H](NC(=O)[C@@H]1CC[C@@H]2CC[C@H](NC(=O)Cc3ccccc3)C(=O)N21)C(=O)N[C@@H](Cc1ccccc1)C(=O)O.O=C(O)C(F)(F)F [Compound 46, (3S,6S,9S)-2-oxo-3-phenylacetamido-1-azabicyclo[4.3.0]nonane-9-carboxyl-L-argininyl-L-phenylalanine trifluoroacetate]
- % Inhibition (FP receptor [6]): 51.1%

Compound: N=C(N)NCCC[C@H](NC(=O)[C@@H]1CC[C@@H]2CC[C@H](NC(=O)Cc3ccccc3)C(=O)N21)C(=O)N[C@H](CC(=O)O)Cc1ccccc1 [Compound 47, (3S,6S,9S)-2-oxo-3-phenylacetamido-1-azabicyclo[4.3.0]nonane-9-carboxyl-L-argininyl-(3′S)-3′-amino-4′-phenylbutanoic acid trifluoroacetate]
- animals delivered within the first 15 h after endotoxin administration (CD-1 mice; 0.1 mg/Kg/day osmotic pump): Less than 25%
- IC50 (FP receptor [6]): 1.6 nM

- IC50 (FP receptor [6]): 3.5 nM
Compound: N=C(N)NCCC[C@H](NC(=O)[C@@H]1CC[C@@H]2CC[C@H](NC(=O)Cc3ccccc3)C(=O)N21)C(=O)N[C@@H](CCc1ccccc1)CC(=O)O [Compound 48, (3S,6S,9S)-2-oxo-3-phenylacetamido-1-azabicyclo[4.3.0]nonane-9-carboxyl-L-argininyl-(3′S)-3′-amino-5′-phenylpentanoic acid trifluoroacetate]

Compound: N=C(N)NCCC[C@H](NC(=O)[C@@H]1CC[C@@H]2CC[C@H](NC(=O)Cc3ccccc3)C(=O)N21)C(=O)N[C@H](CCc1ccccc1)CC(=O)O.O=C(O)C(F)(F)F [Compound 49, (3S,6S,9S)-2-oxo-3-phenylacetamido-1-azabicyclo[4.3.0]nonane-9-carboxyl-L-argininyl-(3′R)-3′-amino-5′-phenylpentanoic acid trifluoroacetate]
- % Inhibition (FP receptor [6]): 59.5%

Compound: CCCCC[C@H](O)/C=C/[C@@H]1[C@@H](C/C=C\CCCC(=O)O)[C@@H](O)C[C@H]1O [PGF2α, prostaglandin F2α, reference compound]
- displacement of [3H]PGF2α binding (human FP receptor [7]): completely displaced

Compound: O=C(CCc1ccc(O)cc1)c1c(O)cc(O)cc1O [Phloretin]
- IC50 (FP receptor [1]; antagonist of FP receptor): 20000 nM
